This is an account of results in paper PMC8929578, “In vitro and in silico evaluation of Ononis isoflavonoids as molecules targeting the central nervous system” (PLoS ONE, 2022).

One data set deals with MAO-B vs MAO-A. The experiment in a line: Selectivity index of ChEMBl reference structures (MAO-A and MAO-B IC50). The data set is classed as biochemical, human. As to conditions: selectivity index calculated from ChEMBl IC50 values of MAO-A and MAO-B.
For another data set, the target named is T1, Monoamine oxidase B (Homo sapiens, UniProt P27338).
T1 sequence (P27338 2-520): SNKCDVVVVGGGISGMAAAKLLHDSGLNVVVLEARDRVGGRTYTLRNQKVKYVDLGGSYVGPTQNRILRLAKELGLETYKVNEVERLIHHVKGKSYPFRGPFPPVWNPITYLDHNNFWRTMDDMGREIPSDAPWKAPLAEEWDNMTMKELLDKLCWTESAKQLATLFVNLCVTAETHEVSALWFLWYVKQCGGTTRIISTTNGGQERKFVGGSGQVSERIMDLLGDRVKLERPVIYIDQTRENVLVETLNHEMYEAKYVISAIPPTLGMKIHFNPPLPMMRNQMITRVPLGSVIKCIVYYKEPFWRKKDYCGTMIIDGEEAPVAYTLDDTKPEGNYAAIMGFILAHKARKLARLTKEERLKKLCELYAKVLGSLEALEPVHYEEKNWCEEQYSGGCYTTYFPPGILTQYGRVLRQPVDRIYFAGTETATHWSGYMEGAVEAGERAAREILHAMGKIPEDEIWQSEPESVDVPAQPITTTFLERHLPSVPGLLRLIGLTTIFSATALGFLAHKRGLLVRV
As to conditions: human enzyme, closest reference structures; ref ChEMBl database; read-out: IC50 values (MAO-B); cited from earlier work.

On the set-up of data set [1]: method as in literature (reference not given). As to conditions: ref literature (reference not given); cited from earlier work.
The nature of data set [2]: PAMPA-BBB parallel artificial membrane permeability assay. As to conditions: for Papp at 4 h, 100 µM: PAMPA; for Experimental log Pe value / Membrane retention: PAMPA-BBB, pH 7.4, 37°C, 4 hours, n=9, ± SD; for Experimental log Pe value: Pe in cm/s.
Data set [3] is described as follows: Octanol/water partitioning, shake-flask method (log P, log D^pH). As to conditions: n-octanol/Britton-Robinson buffer.
The subject of another data set is MAO-B. As to conditions: cited from earlier work; for MAO-B selectivity index: MAO-B over MAO-A; for IC50: in vitro.
For data set [4] the following is noted: PAMPA, pH 7.4. In general terms: In PAMPA a lipid-coated filter parts donor from acceptor wells.

Values joined by “and” are separate entries in the source; they are usually repeats but may differ in a detail not shown here. Equal values may be shown once. Read-outs that look alike come from different tables or passages of the source.

As to `COc1ccc(C2CC(c3ccc(O)cc3)=NN2C(C)=O)cc1` (centres unmarked) [CHEMBL65761], the Selectivity with MAO-B vs MAO-A is on record as 0.00125.

A word on the IC50: it is the concentration that gives 50% inhibition. For `O=C1/C(=C/c2ccc(O)cc2)COc2cc(O)cc(O)c21` [CHEMBL1077616], the IC50 at Monoamine oxidase B is 8710 nM.

As to `O=C1/C(=C/c2ccc(O)c(O)c2)COc2ccccc21` [CHEMBL1766558], the Selectivity with MAO-B vs MAO-A is 33.7319 and 33.73.

For the compound `O=C(Nc1ccc(O)c(O)c1)c1cc(=O)c2ccccc2o1` [CHEMBL1814057], the Selectivity in the data set on MAO-B vs MAO-A is given as 0.07.

Regarding `O=C(Nc1ccc(O)cc1)c1coc2ccccc2c1=O` [CHEMBL1814064], the Selectivity in the data set on MAO-B vs MAO-A was 74.375 and 74.38.

Take `O=C(Nc1ccc(O)c(O)c1)c1coc2ccccc2c1=O` [CHEMBL1814066]: the Selectivity in the data set on MAO-B vs MAO-A was 2.69.

As to `O=C1/C(=C/c2ccc(N3CCOCC3)cc2)Oc2cc(O)cc(O)c21` [CHEMBL1814450], the Selectivity in the data set with MAO-B vs MAO-A is 3.176.

For the compound `O=c1c2ccccc2sc2cc(O)cc(O)c12` [CHEMBL2018439, 1,3-Dihydroxythioxanthone], in the data set with MAO-B vs MAO-A, the Selectivity was 0.9333.

With `CN(C)c1ccc(/C=C2\Oc3cc(O)cc(O)c3C2=O)cc1` [CHEMBL2288402], the Selectivity in the data set with MAO-B vs MAO-A was 0.04 and 0.03923.

`O=C1/C(=C/c2ccc(N3CCCC3)cc2)Oc2cc(O)cc(O)c21` [CHEMBL3786282]: the Selectivity in the data set on MAO-B vs MAO-A is 1.1688.

In the case of `CCN(CC)c1ccc(/C=C2\Oc3cc(O)cc(O)c3C2=O)cc1` [CHEMBL3786747], the Selectivity in the data set with MAO-B vs MAO-A was 0.3443.

On to `CCN(C)c1ccc(/C=C2\Oc3cc(O)cc(O)c3C2=O)cc1` [CHEMBL3786785], for which the Selectivity in the data set on MAO-B vs MAO-A was 0.03453.

Consider `O=C1/C(=C/c2ccc(O)cc2)Cc2cc(O)ccc21` [CHEMBL3890408], for which the Selectivity with MAO-B vs MAO-A is 0.6095 and 0.61.

Take `O=C1/C(=C/c2cccc(O)c2)Cc2cc(O)ccc21` [CHEMBL3891485]: the Selectivity in the data set with MAO-B vs MAO-A is 1.242 and 1.24.

In the case of `N#Cc1ccc(/C=C2\Cc3cc(O)ccc3C2=O)cc1` [CHEMBL3900500], the Selectivity in the data set with MAO-B vs MAO-A is recorded as 6.582.

Consider `O=C1/C(=C/c2ccc(Cl)cc2)Cc2cc(O)ccc21` [CHEMBL3907033], for which the Selectivity in the data set with MAO-B vs MAO-A was 57.

With `COc1cccc(/C=C2\Cc3cc(O)ccc3C2=O)c1` [CHEMBL3918471], the Selectivity with MAO-B vs MAO-A is recorded as 2.527.

On to `O=C1/C(=C/c2cccc(Cl)c2)Cc2cc(O)ccc21` [CHEMBL3924440], for which, in the data set with MAO-B vs MAO-A, the Selectivity was 5.233.

In the case of `O=C1/C(=C/c2ccc(F)cc2)Cc2cc(O)ccc21` [CHEMBL3933900], the Selectivity in the data set with MAO-B vs MAO-A is reported as 14.4468.

Consider `O=C1/C(=C/c2ccc(Br)cc2)Cc2cc(O)ccc21` [CHEMBL3950873], for which, in the data set with MAO-B vs MAO-A, the Selectivity is given as 198.113.

With `O=C1/C(=C/c2cccc(F)c2)Cc2cc(O)ccc21` [CHEMBL3965044], the Selectivity in the data set with MAO-B vs MAO-A is 5.452.

Consider `N#Cc1cccc(/C=C2\Cc3cc(O)ccc3C2=O)c1` [CHEMBL3971638], for which, in the data set on MAO-B vs MAO-A, the Selectivity is given as 3.415.

For the compound `O=C1/C(=C/c2cccc(Br)c2)Cc2cc(O)ccc21` [CHEMBL3979091], in the data set on MAO-B vs MAO-A, the Selectivity is reported as 10.0769.

With `Cc1ccc2occ(/C=N/c3cc(Cl)ccc3O)c(=O)c2c1` [CHEMBL4073506], the Selectivity in the data set with MAO-B vs MAO-A is 3.391.

As for `O=c1c(/C=N/c2cc(F)ccc2O)coc2ccccc12` [CHEMBL4082043], the Selectivity in the data set on MAO-B vs MAO-A is given as 2.612.

With `Cc1ccc(O)c(/N=C/c2coc3ccc(C)cc3c2=O)c1` [CHEMBL4082612], the Selectivity with MAO-B vs MAO-A was 6.275.

For the compound `O=c1c(/C=N/c2ccc(Cl)cc2O)coc2ccccc12` [CHEMBL4086270], the Selectivity in the data set on MAO-B vs MAO-A was 0.7978.

With `Cc1ccc2occ(/C=N/c3cc(F)ccc3O)c(=O)c2c1` [CHEMBL4090445], the Selectivity in the data set with MAO-B vs MAO-A is on record as 1.637.

For `Cc1ccc2occ(/C=N/c3ccc(Cl)cc3O)c(=O)c2c1` [CHEMBL4099570], the Selectivity in the data set with MAO-B vs MAO-A was 2.863.

As to `Cc1ccc(O)c(/N=C/c2coc3ccccc3c2=O)c1` [CHEMBL4100473], the Selectivity in the data set on MAO-B vs MAO-A is listed as 2.956.

The Papp is the rate of passage across a membrane or cell layer, normalised by area and donor concentration. Higher therefore signals ready permeation. For the compound `Cn1c(=O)c2c(ncn2C)n(C)c1=O` [Caffeine], the “log BB literature value” in data set [1] is given as 0.01. The same compound showed a Papp at 4 h, 100 µM in data set [2] of 3.24 ×10⁻⁶ cm/s.

As usually defined, the logD is the decadic logarithm of the distribution of all forms, ionised or not, between an organic phase and buffer at a given pH. Read a high logD as higher lipophilicity. For orientation: logP means the decadic logarithm of the partition coefficient of the neutral form, usually between octanol and water. For `COc1cc(-c2coc3cc(O)ccc3c2=O)ccc1O` [Calycosin D], in data set [2] (pH 7.4), the Papp at 4 h, 100 µM came to 2.5 ×10⁻⁶ cm/s. In addition, in data set [2], the “Experimental log Pe value” is -5.60 and -5.60 ± 0.07; the Membrane retention was 16.49% and 16.49 ± 1.38%. Also, the “BBB category from Pe” value in data set [2] (categorization of Di et al.) is “uncertain”. The “BBB category from log Pe” value in data set [2] (cut-off of Könczöl et al.) is reported as “well-permeating”. Also, in data set [2] (cut-off of Mensch et al.), the “BBB category from log Pe” value is reported as “BBB-”. In data set [3] (pH 5), this compound yielded a logD at 1 h of 2.48 ± 0.02 and a logP at 1 h of 2.48. Also, in data set [3] (pH 7.4), the log distribution coefficient (logD) at 1 h was 2.21 ± 0.04.

As for `COc1ccc(-c2coc3cc(O)ccc3c2=O)cc1O` [Calycosin], in the data set on MAO-B, the MAO-B selectivity index is reported as 293.8 and the IC50 is 240 nM.

In data set [2] (pH 7.4), `COc1ccc(-c2coc3cc(O)ccc3c2=O)cc1` [Formononetin] gave a Papp at 4 h, 100 µM of 10 ×10⁻⁶ cm/s. Also, in data set [2], the “Experimental log Pe value” is given as -5.00 ± 0.11; the Membrane retention was 27.25% and 27.25 ± 6.43%. For the same compound, in data set [3] (pH 5), the logD at 1 h was determined as 2.83 ± 0.05 and the logP at 1 h came to 2.83. This compound came in with a logD at 1 h in data set [3] (pH 7.4) of 2.73 ± 0.07.

For `Oc1ccc2c(c1)OC[C@H]1c3cc4c(cc3O[C@@H]21)OCO4` [Maackiain], in data set [4] (4 h, 100 µM), the “Experimental log Pe value” is reported as -4.48. Moreover, the “Experimental log Pe value” in data set [4] is reported as -4.48 ± 0.08. For the same compound, in the data set on MAO-B, the MAO-B selectivity index is listed as 126.2, the “Type of MAO-B inhibition” value is on record as “reversible” and the IC50 was 680 nM. The “Measured log D^7.4 ± SE” value in data set [3] (pH 7.4, 25°C) was found to be 2.49 ± 0.02. Besides, in data set [3] (unionized form (pH 5 for isoflavones and isoflavanones)), the “Experimental log P” value amounted to 2.49.

The compound `COc1cc2c(cc1C1COc3cc(O)ccc3C1=O)OCO2` (centres unmarked) [Onogenin] had a Papp at 4 h, 100 µM in data set [2] (pH 7.4) of 18.6 ×10⁻⁶ cm/s. Besides, in data set [2], the “Experimental log Pe value” is -4.73 ± 0.04; the Membrane retention was 32.51% and 31.51 ± 4.04%. In data set [3] (pH 5), this compound showed a logD at 1 h of 3.03 ± 0.02 and a lipophilicity (logP) at 1 h of 3.03. In data set [3] (pH 7.4), this compound had a logD at 1 h of 2.49 ± 0.04.

With `C=C[C@H]1C[N@@]2CC[C@H]1C[C@H]2[C@H](O)c1ccnc2ccc(OC)cc12` [Quinine], the “log BB literature value” in data set [1] is reported as 0.60. The compound further gave a Papp at 4 h, 100 µM in data set [2] of 15.5 ×10⁻⁶ cm/s.

Turning to `C[C@@H]1O[C@@H](OC[C@H]2O[C@@H](Oc3c(-c4ccc(O)c(O)c4)oc4cc(O)cc(O)c4c3=O)[C@H](O)[C@@H](O)[C@@H]2O)[C@H](O)[C@H](O)[C@H]1O` [Rutin], the “log BB literature value” in data set [1] is -1.22. The Papp at 4 h, 100 µM in data set [2] is 0.00776 ×10⁻⁶ cm/s.

Turning to `O=C(O)c1ccccc1O` [Salicylic acid], the “log BB literature value” in data set [1] was -1.10. In data set [2], this compound showed a Papp at 4 h, 100 µM of 0.00851 ×10⁻⁶ cm/s.

As to `COc1ccc(C2COc3cc(O)ccc3C2=O)c(OC)c1` (centres unmarked) [Sativanone], the Papp at 4 h, 100 µM in data set [2] (pH 7.4) was 17.4 ×10⁻⁶ cm/s. Besides, in data set [2], the “Experimental log Pe value” is -4.76 ± 0.07; the Membrane retention was 33.66% and 33.66 ± 4.13%. Besides, in data set [3] (pH 5), the logD at 1 h is 3.04 ± 0.01 and the logP at 1 h was determined as 3.04. In data set [3] (pH 7.4), this compound showed a log distribution coefficient (logD) at 1 h of 2.75 ± 0.03.
